Test results: BindingDB's records for doi:10.1021/jm00089a012 (Merck Sharp and Dohme Research Laboratories, 1992)

Experiment: In vitro for the binding affinity against sigma receptor by using [3H]DTG as radioligand in guinea pig cerebellum

Compound	IC50
CCCN1CCC2=C(CCc3ccccc32)C1	21 nM
CCCCN1CCC2c3ccccc3CCCC2C1 (centres undefined)	2.1 nM
c1coc(CN2CC[C@H]3c4ccccc4CC[C@H]3C2)c1	6.6 nM
Clc1ccc(CN2CC[C@H]3c4ccccc4CC[C@H]3C2)cc1	4.7 nM
CCCCN1CCC2=C(Cc3ccccc32)C1	1.9 nM
c1ccc(CCCN2CC[C@H]3c4ccccc4CC[C@H]3C2)cc1	4.3 nM
c1ccc2c(c1)CC[C@H]1CN(C34C[C@H]5C[C@@H](C3)C[C@@H](C4)C5)CC[C@@H]21	2.3 nM
c1ccc2c(c1)CC[C@H]1CN(C3CCCCC3)CC[C@@H]21	0.251 nM
c1ccc(CCN2CC[C@H]3c4ccccc4CC[C@H]3C2)cc1	0.324 nM
c1csc(CN2CC[C@H]3c4ccccc4CC[C@H]3C2)c1	7.1 nM
c1ccc(CN2CC[C@H]3c4ccccc4CC[C@H]3C2)nc1	17 nM
c1ccc2c(c1)CC[C@H]1CN(CC3CC3)CC[C@@H]21	2.5 nM
CCCCN1CC[C@H]2c3cc(C)cc(C)c3CC[C@H]2C1	2 nM
c1ccc2c(c1)CC[C@H]1CN(Cc3ccc4ccccc4c3)CC[C@@H]21	81 nM
CCCCN1CC[C@@H]2c3ccccc3CC[C@H]2C1	3.1 nM
C=CCN1CC[C@H]2c3ccccc3CC[C@H]2C1	4.6 nM
CCCCN1CCC2c3ccccc3CC2C1 (centres undefined)	11 nM
CCCN1CC[C@H]2c3ccccc3CC[C@H]2C1	2.6 nM
CN1CC[C@@H]2c3ccccc3CC[C@H]2C1	447 nM
CCCCN1CC[C@H]2c3ccccc3CC[C@H]2C1	6.3 nM
O=[N+]([O-])c1ccc(CN2CC[C@H]3c4ccccc4CC[C@H]3C2)cc1	8.7 nM
COc1ccc(CN2CC[C@H]3c4ccccc4CC[C@H]3C2)cc1	2 nM
CN1CC[C@H]2c3ccccc3CC[C@H]2C1	339 nM
c1ccc2c(c1)CC[C@H]1CN(C3[C@H]4C[C@@H]5C[C@@H](C[C@H]3C5)C4)CC[C@@H]21 (some centres undefined)	2.2 nM
